Laboratory results: PubChem BioAssay AID1259407 (Chemical Carcinogenesis Research Information System (CCRIS), 2018)
Active and inactive are the calls of the source. No rule for the calls is given here.

System: CCRIS mutagenicity, Ames/micronucleus/aberration tests
Assay: CCRIS mutagenicity studies
[1] = Test System: AMES SALMONELLA TYPHIMURIUM, Strain/Indicator: TA98, Metabolic Activation: NONE, Method: STANDARD PLATE
[2] = Test System: AMES SALMONELLA TYPHIMURIUM, Strain/Indicator: TA100, Metabolic Activation: NONE, Method: STANDARD PLATE
[3] = Test System: AMES SALMONELLA TYPHIMURIUM, Strain/Indicator: TA100, Metabolic Activation: RAT, LIVER, S-9, AROCLOR 1254, Method: PREINCUBATION
[4] = Test System: AMES SALMONELLA TYPHIMURIUM, Strain/Indicator: TA98, Metabolic Activation: NONE, Method: PREINCUBATION
[5] = Test System: AMES SALMONELLA TYPHIMURIUM, Strain/Indicator: TA98, Metabolic Activation: RAT, LIVER, S-9, AROCLOR 1254, Method: PREINCUBATION
[6] = Test System: AMES SALMONELLA TYPHIMURIUM, Strain/Indicator: TA100, Metabolic Activation: NONE, Method: PREINCUBATION

Structure (SMILES): Nc1nc2c(ccc3ncccc32)s1
- mutagenic call (Test System: AMES SALMONELLA TYPHIMURIUM, Strain/Indicator: TA1538, Metabolic Activation: RAT, LIVER, S-9, AROCLOR 1254, Method: STANDARD PLATE): active; positive

Structure (SMILES): CCc1ccc(/C=C/c2ccc(N)cc2)cc1
- mutagenic call [1]: inactive; negative
- mutagenic call (Test System: AMES SALMONELLA TYPHIMURIUM, Strain/Indicator: TA98, Metabolic Activation: RAT LIVER S9, AROCLOR, Method: STANDARD PLATE): active; positive
- mutagenic call [2]: inactive; negative
- mutagenic call (Test System: AMES SALMONELLA TYPHIMURIUM, Strain/Indicator: TA100, Metabolic Activation: RAT, LIVER, S9, AROCLOR, Method: STANDARD PLATE): active; positive

Structure (SMILES): Cc1cc2ccccc2c2cc3ccccc3cc12
- mutagenic call (Test System: AMES SALMONELLA TYPHIMURIUM, Strain/Indicator: TA100, Metabolic Activation: RAT, INTACT HEPATOCYTES, AROCLOR 1254, Method: PREINCUBATION): active; positive
- mutagenic call [3]: active; positive
- mutagenic call (Test System: AMES SALMONELLA TYPHIMURIUM, Strain/Indicator: TA100, Metabolic Activation: RAT, NADPH-FORTIFIED HOMOGENIZED HEPATOCYTES, AROCLOR 1254, Method: PREINCUBATION): active; positive
- mutagenic call (Test System: AMES SALMONELLA TYPHIMURIUM, Strain/Indicator: TA100, Metabolic Activation: RAT, SONICATED HEPATOCYTES, AROCLOR 1254, Method: PREINCUBATION): active; positive

Structure (SMILES): O=[N+]([O-])OCC(CO[N+](=O)[O-])O[N+](=O)[O-]
- mutagenic call (Test System: AMES SALMONELLA TYPHIMURIUM, Strain/Indicator: TA100(NR), Metabolic Activation: NONE, Method: STANDARD PLATE): inactive; negative
- mutagenic call [2]: inactive; negative
- mutagenic call (Test System: AMES SALMONELLA TYPHIMURIUM, Strain/Indicator: TA102, Metabolic Activation: HAMSTER, LIVER, S-9, AROCLOR 1254, Method: STANDARD PLATE): inactive; negative
- mutagenic call (Test System: AMES SALMONELLA TYPHIMURIUM, Strain/Indicator: TA102, Metabolic Activation: NONE, Method: STANDARD PLATE): inactive; negative
- mutagenic call (Test System: AMES SALMONELLA TYPHIMURIUM, Strain/Indicator: TA1535, Metabolic Activation: HAMSTER, LIVER, S-9, AROCLOR 1254, Method: STANDARD PLATE): active; positive
- mutagenic call (Test System: AMES SALMONELLA TYPHIMURIUM, Strain/Indicator: TA1535, Metabolic Activation: NONE, Method: STANDARD PLATE): active; positive
- mutagenic call (Test System: AMES SALMONELLA TYPHIMURIUM, Strain/Indicator: TA1538, Metabolic Activation: NONE, Method: STANDARD PLATE): inactive; negative
- mutagenic call (Test System: AMES SALMONELLA TYPHIMURIUM, Strain/Indicator: TA1975, Metabolic Activation: NONE, Method: STANDARD PLATE): inactive; negative
- mutagenic call (Test System: AMES SALMONELLA TYPHIMURIUM, Strain/Indicator: YG1026, Metabolic Activation: NONE, Method: STANDARD PLATE): inactive; negative

Structure (SMILES): O=[N+]([O-])c1cc(O)c2ccc3cccc4ccc1c2c34
- mutagenic call (Test System: AMES SALMONELLA TYPHIMURIUM, Strain/Indicator: TA98(1,8-DNP6), Metabolic Activation: NONE, Method: PREINCUBATION): active; positive
- mutagenic call (Test System: AMES SALMONELLA TYPHIMURIUM, Strain/Indicator: TA98(1,8-DNP6), Metabolic Activation: NONE, Method: STANDARD PLATE): active; positive
- mutagenic call (Test System: AMES SALMONELLA TYPHIMURIUM, Strain/Indicator: TA98(1,8-DNP6), Metabolic Activation: RAT, LIVER, S-9, AROCLOR 1254, Method: STANDARD PLATE): active; positive
- mutagenic call (Test System: AMES SALMONELLA TYPHIMURIUM, Strain/Indicator: TA98(NR), Metabolic Activation: NONE, Method: PREINCUBATION): active; positive
- mutagenic call (Test System: AMES SALMONELLA TYPHIMURIUM, Strain/Indicator: TA98(NR), Metabolic Activation: NONE, Method: STANDARD PLATE): active; positive
- mutagenic call (Test System: AMES SALMONELLA TYPHIMURIUM, Strain/Indicator: TA98(NR), Metabolic Activation: RAT, LIVER, S-9, AROCLOR 1254, Method: STANDARD PLATE): active; positive
- mutagenic call [4]: active; positive
- mutagenic call [5]: active; positive
- mutagenic call (Test System: AMES SALMONELLA TYPHIMURIUM, Strain/Indicator: TA98, Metabolic Activation: RAT, LIVER, S-9, AROCLOR 1254, Method: STANDARD PLATE): active; positive
- mutagenic call [6]: active; positive
- mutagenic call [3]: active; positive
- mutagenic call (Test System: AMES SALMONELLA TYPHIMURIUM, Strain/Indicator: YG1024, Metabolic Activation: NONE, Method: STANDARD PLATE): active; positive
- mutagenic call (Test System: AMES SALMONELLA TYPHIMURIUM, Strain/Indicator: YG1024, Metabolic Activation: RAT, LIVER, S-9, AROCLOR 1254, Method: STANDARD PLATE): active; positive
- mutagenic call (Test System: CHINESE HAMSTER OVARY, Strain/Indicator: CHO (HGPRT)/6-THIOGUANINE, Metabolic Activation: NONE, Method: STANDARD PLATE): inactive; negative
- mutagenic call (Test System: CHINESE HAMSTER OVARY, Strain/Indicator: CHO (HGPRT)/6-THIOGUANINE, Metabolic Activation: RAT, LIVER, S-9, AROCLOR 1254, Method: STANDARD PLATE): active; positive
- mutagenic call (Test System: UDS RODENT HEPATOCYTES, Strain/Indicator: THY INCORP, Metabolic Activation: NONE, Method: AUTORADIOGRAPHY): inactive; negative

Structure (SMILES): CC(=O)OCc1c2ccccc2cc2ccc3ccccc3c12
- mutagenic call [1]: active; positive
- mutagenic call [2]: active; positive

Structure (SMILES): Clc1ccc2ccccc2n1
- mutagenic call [4]: inactive; negative
- mutagenic call (Test System: AMES SALMONELLA TYPHIMURIUM, Strain/Indicator: TA98, Metabolic Activation: RAT, LIVER, S-9, Method: PREINCUBATION): inactive; negative
- mutagenic call [6]: inactive; negative
- mutagenic call (Test System: AMES SALMONELLA TYPHIMURIUM, Strain/Indicator: TA100, Metabolic Activation: RAT, LIVER, S-9, PHENOBARBITAL AND 5,6-BENZOFLAVONE, Method: PREINCUBATION): inactive; negative
- mutagenic call (Test System: AMES SALMONELLA TYPHIMURIUM, Strain/Indicator: TA100, Metabolic Activation: RAT, LIVER, S-9, Method: PREINCUBATION): inactive; negative

Structure (SMILES): C=CC(=O)NC(C)(C)CC(C)=O
- mutagenic call (Test System: AMES SALMONELLA TYPHIMURIUM, Strain/Indicator: TA98, Metabolic Activation: HAMSTER, LIVER, S-9, AROCLOR 1254, Method: PREINCUBATION): inactive; negative
- mutagenic call [4]: inactive; negative
- mutagenic call [5]: inactive; negative
- mutagenic call (Test System: AMES SALMONELLA TYPHIMURIUM, Strain/Indicator: TA100, Metabolic Activation: HAMSTER, LIVER, S-9, AROCLOR 1254, Method: PREINCUBATION): inactive; negative
- mutagenic call [6]: inactive; negative
- mutagenic call [3]: inactive; negative
- mutagenic call (Test System: AMES SALMONELLA TYPHIMURIUM, Strain/Indicator: TA1535, Metabolic Activation: HAMSTER, LIVER, S-9, AROCLOR 1254, Method: PREINCUBATION): inactive; negative
- mutagenic call (Test System: AMES SALMONELLA TYPHIMURIUM, Strain/Indicator: TA1535, Metabolic Activation: NONE, Method: PREINCUBATION): inactive; negative
- mutagenic call (Test System: AMES SALMONELLA TYPHIMURIUM, Strain/Indicator: TA1535, Metabolic Activation: RAT, LIVER, S-9, AROCLOR 1254, Method: PREINCUBATION): inactive; negative
- mutagenic call (Test System: AMES SALMONELLA TYPHIMURIUM, Strain/Indicator: TA1537, Metabolic Activation: HAMSTER, LIVER, S-9, AROCLOR 1254, Method: PREINCUBATION): inactive; negative
- mutagenic call (Test System: AMES SALMONELLA TYPHIMURIUM, Strain/Indicator: TA1537, Metabolic Activation: NONE, Method: PREINCUBATION): inactive; negative
- mutagenic call (Test System: AMES SALMONELLA TYPHIMURIUM, Strain/Indicator: TA1537, Metabolic Activation: RAT, LIVER, S-9, AROCLOR 1254, Method: PREINCUBATION): inactive; negative
